{"source": "patent US20240009174A1", "about": "“METHODS FOR DISRUPTING MITOCHONDRIAL UNFOLDED PROTEIN RESPONSE” (Health Research, Inc., priority 2020, published 2024)", "format_in_all_cases": "cell-based", "key": {"[1]": {"system": "PCa cells (LNCaP and PC-3)", "test": "Cell death / apoptosis in PCa cells (Annexin V FITC/PI flow cytometry)", "experimental": "FIG. 6. Pharmacological inhibition of HSP60-ClpP interaction induces UPR^mt and PCa cell death. (A) Docking of DCEM1 into apical domain of HSP60. (B) LNCaP and PC-3 cells were treated with DCEM1 for 24 hours and HSP60-ClpP interaction was analyzed by co-immunoprecipitation assay. (C) LNCaP and PC-3 cells were treated with DCEM1 for 24 hours and mitoROS levels were analyzed by flow cytometry using mitoSOX dye. (D) LNCaP and PC-3 cells were treated with DCEM1 for 24 hours and poly-Ub protein levels were analyzed by western blotting. (E) LNCaP and PC-3 cells were treated with DCEM1 for 24 and 48 hours and apoptotic cell populations were analyzed by flow cytometry using Annexin V FITC/PI method as explained in materials and methods. In (E) top panel, the bars in each series from left to right are control, 5, 10, and 20, and in (E) bottom panel, the bars in each series from left to right are DMSO, 5, 10, and 20. (F) LNCaP and PC-3 cells were treated with DCEM1 for 24 and 48 hours and lysates were prepared and analyzed for DEVDase activity using specific peptide substrate. […] (G) LNCaP and PC-3 cells were pre-treated with SKQ1 followed by DCEM1 treatment and analyzed for cell viability by MTT assay. (H) LNCaP and PC-3 cells were treated with either DCEM1 or H2O2 (200 μM) for 24 hours and total DNA were isolated and analyzed for mtDNA damage as described in materials and methods. […]"}, "RWPE-1 cells": {"system": "RWPE-1 cells", "test": "Apoptosis in non-carcinoma RWPE-1 cells (Annexin V/PI labeling)", "details": "24 h and 48 h, doses 5, 10, 20", "experimental": "FIG. 9. Structure of DCEM1 is shown in (A). (B) Human prostate epithelial non carcinoma RWPE-1 cells were treated with DCEM1 at indicated doses for 24 h and 48 h and apoptotic cells were quantified by Annexin V/PI labeling as described in material and methods. In (B), the bars in each series from left to right are DMSO, 5, 10, and 20.\nIdentification of novel inhibitor of HSP60-ClpP interaction that disrupts UPR^mt function and induces PCa cell death. Having shown that two arms of UPR^mt, HSP60 chaperonin and ClpP protease interact and play critical role in PCa cell survival, an in silico analysis was performed and a small molecule library (developed by Enamine Ltd) was screened to identify drugs targeting the apical domain of HSP60 critical for its interaction with ClpP. 9 compounds (A-I) were identified and screened for their cell death inducing potential in PCa cells (data not shown). […] Colony forming ability of PCa cells was inhibited by DCEM1 treatment (data not shown)."}, "PC-3 cells": {"system": "PC-3 cells", "test": "Protein expression of nuclear encoded OXPHOS subunits"}, "LNCaP and PC-3 cells [2]": {"system": "LNCaP and PC-3 cells", "test": "mitoROS by flow cytometry using mitoSOX dye", "experimental": "FIG. 6. Pharmacological inhibition of HSP60-ClpP interaction induces UPR^mt and PCa cell death. (A) Docking of DCEM1 into apical domain of HSP60. (B) LNCaP and PC-3 cells were treated with DCEM1 for 24 hours and HSP60-ClpP interaction was analyzed by co-immunoprecipitation assay. (C) LNCaP and PC-3 cells were treated with DCEM1 for 24 hours and mitoROS levels were analyzed by flow cytometry using mitoSOX dye. (D) LNCaP and PC-3 cells were treated with DCEM1 for 24 hours and poly-Ub protein levels were analyzed by western blotting. (E) LNCaP and PC-3 cells were treated with DCEM1 for 24 and 48 hours and apoptotic cell populations were analyzed by flow cytometry using Annexin V FITC/PI method as explained in materials and methods. In (E) top panel, the bars in each series from left to right are control, 5, 10, and 20, and in (E) bottom panel, the bars in each series from left to right are DMSO, 5, 10, and 20. (F) LNCaP and PC-3 cells were treated with DCEM1 for 24 and 48 hours and lysates were prepared and analyzed for DEVDase activity using specific peptide substrate. In (F), the bars in each series from left to right are DMSO, 5, 10, and 20. (G) LNCaP and PC-3 cells were pre-treated with SKQ1 followed by DCEM1 treatment and analyzed for cell viability by MTT assay. (H) LNCaP and PC-3 cells were treated with either DCEM1 or H2O2 (200 μM) for 24 hours and total DNA were isolated and analyzed for mtDNA damage as described in materials and methods.\nFIG. 7. […] (A) LNCaP and PC-3 cells were pre-treated with either rotenone or antimycin-A followed by DCEM1 treatment and mitochondrial ROS was analyzed as described in material and methods (data represented as fold change compared to control). In (A), the bars in each series from left to right are control, DCEM1, Rot+DCEM1, Anti A+DCEM1, Rot, and Anti A (B) ClpP protein was over-expressed in LNCaP and PC-3 cells followed by DCEM1 treatment and mitochondrial ROS was analyzed as described in material and methods (Data represented as fold change compared to control). […]"}, "LNCaP and PC-3 cells [3]": {"system": "LNCaP and PC-3 cells", "test": "Mitochondrial membrane potential (mitoMP)", "experimental": "FIG. 7. Pharmacological inhibition of HSP60-ClpP interaction induces metabolic stress in PCa cells. (A) LNCaP and PC-3 cells were pre-treated with either rotenone or antimycin-A followed by DCEM1 treatment and mitochondrial ROS was analyzed as described in material and methods (data represented as fold change compared to control). In (A), the bars in each series from left to right are control, DCEM1, Rot+DCEM1, Anti A+DCEM1, Rot, and Anti A (B) ClpP protein was over-expressed in LNCaP and PC-3 cells followed by DCEM1 treatment and mitochondrial ROS was analyzed as described in material and methods (Data represented as fold change compared to control). […] (C) ClpP protein was over-expressed in LNCaP and PC-3 cells followed by DCEM1 treatment and level of poly-ubiquitinated protein was analyzed by western blotting. (D) ClpP protein was over-expressed in LNCaP and PC-3 cells followed by DCEM1 treatment and DEVDase activity was analyzed as described in material and methods (Data represented as fold change compared to control). […] (E) Mitochondrial membrane potential (mitoMP) was analyzed in LNCaP and PC-3 cells treated with DCEM1 as described in material and methods (Data represented as fold change compared to control). […] (F) ATP level was analyzed in LNCaP and PC-3 cells treated with DCEM1 as described in material and methods (Data represented as fold change compared to control). […]"}}}
{"molecule": "CCOc1cc(CNCc2nc3ccccc3[nH]2)ccc1OCc1cccs1", "note": "[DCEM1]", "values": [{"measurement": "apoptotic cell death", "setting": "[1]; LNCaP and PC-3 cells, 24 and 48 hours, Annexin V FITC/PI", "value": "apoptotic cell death was observed"}, {"measurement": "cell death in PCa cells", "setting": "[1]; PCa cells", "value": "robust cell death"}, {"measurement": "effect (cell death/apoptosis) on non-carcinoma prostate epithelial RWPE-1 cells", "setting": "RWPE-1 cells", "value": "no effect"}, {"measurement": "nuclear encoded subunits of OXPHOS Complexes", "setting": "PC-3 cells", "value": "downregulation of nuclear encoded subunits of OXPHOS Complexes"}, {"measurement": "DCEM1-induced mitoROS production and DEVDase activity with ClpP overexpression", "setting": "LNCaP and PC-3 cells [2]; ClpP over-expressed in LNCaP and PC-3 cells followed by DCEM1", "value": "inhibited"}, {"measurement": "mitoROS levels", "setting": "LNCaP and PC-3 cells [2]; LNCaP and PC-3 cells, 24 hours", "value": "mitoROS upregulation"}, {"measurement": "DCEM1-induced mitoROS production with inhibition of Complex I or III", "setting": "LNCaP and PC-3 cells [2]; pre-treated with rotenone or antimycin-A followed by DCEM1", "value": "not attenuated"}, {"measurement": "mitochondrial membrane potential", "setting": "LNCaP and PC-3 cells [3]", "value": "robustly depolarized mitochondrial membrane"}]}
